Experimental data taken from ChEMBL document CHEMBL1135288, “Anthranilate sulfonamide hydroxamate TACE inhibitors. Part 1: Structure-based design of novel acetylenic P1' groups” (Bioorg Med Chem Lett, 2002).

How the values were obtained:
[1] = target: Matrix metalloproteinase-9 (Homo sapiens, UniProt P14780); assay: Inhibition of Matrix metalloprotease-9
Collagenase 3 = Collagenase 3 (Homo sapiens, UniProt P45452); assay: Inhibition of Matrix metalloprotease-13
Interstitial collagenase = target: T1, Interstitial collagenase (Homo sapiens, UniProt P03956); assay: Inhibition of Matrix metalloprotease-1
T1 sequence (P03956 whole entry): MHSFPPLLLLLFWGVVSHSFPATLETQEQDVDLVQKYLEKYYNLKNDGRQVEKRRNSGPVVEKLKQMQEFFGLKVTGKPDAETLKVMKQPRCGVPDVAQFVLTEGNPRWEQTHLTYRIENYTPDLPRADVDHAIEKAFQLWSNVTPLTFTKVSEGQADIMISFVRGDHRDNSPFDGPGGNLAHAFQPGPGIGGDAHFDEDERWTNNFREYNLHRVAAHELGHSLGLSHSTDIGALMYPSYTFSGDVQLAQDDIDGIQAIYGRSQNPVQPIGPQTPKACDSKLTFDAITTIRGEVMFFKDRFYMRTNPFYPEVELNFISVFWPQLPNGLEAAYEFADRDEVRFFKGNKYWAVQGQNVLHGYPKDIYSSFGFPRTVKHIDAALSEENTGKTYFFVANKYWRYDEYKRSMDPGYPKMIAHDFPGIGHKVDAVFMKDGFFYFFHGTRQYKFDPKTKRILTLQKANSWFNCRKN

[2] = target: Disintegrin and metalloproteinase domain-containing protein 17 (Sus scrofa, UniProt O77636); assay: Inhibition of porcine Tumor necrosis factor alpha converting enzyme
[3] = target: T2, Interstitial collagenase (Homo sapiens) (UniProt P03956); assay: Inhibition of Matrix metalloprotease-1 at 10 uM
T2 sequence (whole entry): T1 sequence (P03956 whole entry)

Chain of Disintegrin and metalloproteinase domain-containing protein 17 (O77636 whole entry, the tested form may be a part): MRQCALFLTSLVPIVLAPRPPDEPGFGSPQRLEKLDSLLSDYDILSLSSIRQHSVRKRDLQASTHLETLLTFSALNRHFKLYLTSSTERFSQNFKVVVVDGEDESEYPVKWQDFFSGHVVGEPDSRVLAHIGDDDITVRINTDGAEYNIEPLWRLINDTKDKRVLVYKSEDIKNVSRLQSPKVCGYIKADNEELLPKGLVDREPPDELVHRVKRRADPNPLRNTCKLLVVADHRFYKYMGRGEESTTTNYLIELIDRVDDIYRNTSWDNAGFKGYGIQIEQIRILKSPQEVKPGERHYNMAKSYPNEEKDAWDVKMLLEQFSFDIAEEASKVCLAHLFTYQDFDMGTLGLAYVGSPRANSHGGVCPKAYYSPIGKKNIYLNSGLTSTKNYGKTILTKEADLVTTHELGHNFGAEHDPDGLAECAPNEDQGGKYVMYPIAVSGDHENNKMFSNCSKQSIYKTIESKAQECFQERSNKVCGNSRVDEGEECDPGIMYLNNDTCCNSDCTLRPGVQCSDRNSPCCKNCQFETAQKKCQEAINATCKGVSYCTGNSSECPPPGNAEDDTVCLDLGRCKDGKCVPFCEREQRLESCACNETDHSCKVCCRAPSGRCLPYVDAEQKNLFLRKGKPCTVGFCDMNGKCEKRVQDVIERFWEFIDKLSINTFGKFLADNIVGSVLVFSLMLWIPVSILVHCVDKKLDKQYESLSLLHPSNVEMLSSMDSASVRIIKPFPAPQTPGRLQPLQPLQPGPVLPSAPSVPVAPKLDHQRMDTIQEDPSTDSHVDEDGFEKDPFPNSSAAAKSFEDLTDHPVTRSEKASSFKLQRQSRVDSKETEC
Chain of Matrix metalloproteinase-9 (P14780 whole entry): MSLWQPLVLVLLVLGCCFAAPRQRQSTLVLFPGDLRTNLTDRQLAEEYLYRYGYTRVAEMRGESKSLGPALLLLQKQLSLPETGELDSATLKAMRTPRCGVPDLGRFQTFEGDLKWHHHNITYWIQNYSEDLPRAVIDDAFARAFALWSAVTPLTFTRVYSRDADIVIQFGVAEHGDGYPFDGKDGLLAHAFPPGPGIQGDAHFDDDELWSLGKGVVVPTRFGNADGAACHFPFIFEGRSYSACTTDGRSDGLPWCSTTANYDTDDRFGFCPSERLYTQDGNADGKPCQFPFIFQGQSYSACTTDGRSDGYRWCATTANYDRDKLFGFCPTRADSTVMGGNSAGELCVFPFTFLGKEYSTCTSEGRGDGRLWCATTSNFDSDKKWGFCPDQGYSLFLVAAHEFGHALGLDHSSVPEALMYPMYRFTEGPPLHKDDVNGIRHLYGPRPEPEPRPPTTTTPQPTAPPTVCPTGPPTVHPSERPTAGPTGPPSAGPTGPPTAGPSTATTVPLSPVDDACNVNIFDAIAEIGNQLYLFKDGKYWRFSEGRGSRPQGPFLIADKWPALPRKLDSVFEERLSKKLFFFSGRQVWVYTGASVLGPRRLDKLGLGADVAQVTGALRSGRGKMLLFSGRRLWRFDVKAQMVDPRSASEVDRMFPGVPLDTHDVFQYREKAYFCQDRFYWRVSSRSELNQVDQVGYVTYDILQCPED

SMILES	IC50 [1] [µM]	IC50 (Collagenase 3) [µM]	IC50 (Interstitial collagenase) [µM]	IC50 [2] [µM]	inhibition [3] [%]
CCCCOc1ccc(S(=O)(=O)N(C)c2c(C)cc(Br)cc2C(=O)NO)cc1	0.021	0.068	2.49	0.067	–
CCCCC#CCOc1ccc(S(=O)(=O)N(C)c2c(C)cc(Br)cc2C(=O)NO)cc1	–	–	–	–	53
C#CCOc1ccc(S(=O)(=O)N(C)c2c(C)cc(Br)cc2C(=O)NO)cc1	–	–	–	0.011	–
